Article PMC6199744, “Development of Chemical Proteomics for the Folateome and Analysis of the Kinetoplastid Folateome” (ACS Infectious Diseases, 2018)

Tested on: L. major lysate proteins
Experiment: Multitargeted bead mixture chemoproteomics, single concentration competition, proteome-wide
Format: binding
Settings: for fold change / fold change relative to vehicle control: vehicle control = 1; for fold change relative to vehicle control: competition with free ligand

Nc1nc2cccc(-c3ccccc3)c2n1Cc1ccc(Cl)c(Cl)c1 [compound 3]
fold change vs vehicle control (protein LMJF.22.0730 HY[…], CONSERVED): 1.03 | fold change (protein LMJF.22.1460 I/6 AUTOANTIGEN-LIKE PROTEIN): 1.02 | fold change vs vehicle control (protein LMJF.22.1540 ALANYL-TRNA SYNTHETASE, PUTATIVE): 0.95 | fold change vs vehicle control (protein LMJF.23.0370 […] OXIDASE SUBUNIT 10, PUTATIVE): 1.06 | fold change (protein LMJF.23.0830 NA/H ANTIPORTER-LIKE PROTEIN): 1.19 | fold change (protein LMJF.23.1020 HY[…], UNKNOWN FUNCTION): 0.96 | fold change (protein LMJF.23.1220 T-COMPLEX PROTEIN 1, GAMMA SUBUNIT, PUTATIVE): 1.01 | fold change vs vehicle control (protein LMJF.24.0140 ANKYRIN/TPR REPEAT PROTEIN): 0.99 | fold change (protein LMJF.24.0280 DYNEIN INTERMEDIATE-CHAIN-LIKE PROTEIN): 0.96 | fold change (protein LMJF.24.0770 MALIC ENZYME, PUTATIVE): 0.99 | fold change relative to vehicle control (protein LMJF.24.1510 IGE-DEPENDENT HISTAMINE-RELEASING FACTOR, PUTATIVE): 1.23 | fold change vs vehicle control (protein LMJF.24.1630, SUCCINATE DEHYDROGENASE FLAVOPROTEIN, PUTATIVE): 0.9 | fold change vs vehicle control (protein LMJF.24.1840 LYSOPHOSPHOLIPASE, PUTATIVE): 1.09 | fold change relative to vehicle control (protein LMJF.24.2060 TRANSKETOLASE): 1.1 | fold change (protein LMJF.24.2250 FATTY-ACID DESATURASE, PUTATIVE): 0.99 | fold change vs vehicle control (protein LMJF.25.0120 ELECTRON TRANSFER FLAVOPROTEIN, PUTATIVE): 0.93 | fold change vs vehicle control (protein LMJF.25.0260 DYNEIN LIGHT CHAIN 1, CYTOPLASMIC, PUTATIVE): 1.01 | fold change relative to vehicle control (protein LMJF.25.0910 C[…]): 1.18 | fold change vs vehicle control (protein LMJF.25.1180, ATPASE BETA SUBUNIT, PUTATIVE): 1.09 | fold change (protein LMJF.25.1610 HY[…], CONSERVED): 0.9 | fold change (protein LMJF.25.1620 HY[…], CONSERVED): 1.16 | fold change vs vehicle control (protein LMJF.26.1240 HEAT SHOCK PROTEIN 70-RELATED PROTEIN): 0.94 | fold change vs vehicle control (protein LMJF.26.1710 […] OXIDASE SUBUNIT V, PUTATIVE): 1.08 | fold change vs vehicle control (protein LMJF.26.1960 HY[…], CONSERVED): 0.96 | fold change vs vehicle control (protein LMJF.26.2000 HY[…], CONSERVED): 1.09 | fold change vs vehicle control (protein LMJF.27.0420 RIBOKINASE, PUTATIVE): 1.13 | fold change vs vehicle control (protein LMJF.27.1060 CYSTEINE DESULFURASE, PUTATIVE): 1.05 | fold change (protein LMJF.27.1310 ARGINYL-TRNA SYNTHETASE, PUTATIVE): 0.9 | fold change vs vehicle control (protein LMJF.27.2400 HEAT SHOCK PROTEIN DNAJ, PUTATIVE): 0.99 | fold change vs vehicle control (protein LMJF.28.0110 […] 3 SUBUNIT, PUTATIVE): 0.99 | fold change vs vehicle control (protein LMJF.28.0930 HY[…], CONSERVED): 1.07 | fold change vs vehicle control (protein LMJF.28.0950 HY[…], CONSERVED): 1.01 | fold change vs vehicle control (protein LMJF.28.0980 P27 PROTEIN, PUTATIVE): 1.09 | fold change vs vehicle control (protein LMJF.28.1950 X-PRO, DIPEPTIDYL-PEPTIDASE,SERINE PEPTIDASE, CLAN SC, FAMILY S15, PUTATIVE): 1.06 | fold change relative to vehicle control (protein LMJF.28.2770 HEAT-SHOCK PROTEIN HSP70, PUTATIVE): 0.99 | fold change (protein LMJF.29.0060 TRYPTOPHANYL-TRNA SYNTHETASE, PUTATIVE): 1.05 | fold change (protein LMJF.29.0820 CYSTEINE PEPTIDASE C (CPC)): 0.91 | fold change relative to vehicle control (protein LMJF.29.0850 HIGH MOBILITY GROUP PROTEIN HOMOLOG TDP-1, PUTATIVE): 1.27 | fold change vs vehicle control (protein LMJF.29.1160 TRYPAREDOXIN): 0.99 | fold change (protein LMJF.29.1760 PAR[…] PROTEIN 1D, PUTATIVE): 0.75 | fold change vs vehicle control (protein LMJF.29.1780 D[…] PROTEIN, PUTATIVE): 1.05 | fold change vs vehicle control (protein LMJF.29.2240 AMINOPEPTIDASE, PUTATIVE): 1.03 | fold change (protein LMJF.29.2310 ENOYL-COA HYDRATASE/ISOMERASE-LIKE PROTEIN): 0.98 | fold change (protein LMJF.29.2860 40S RIBOSOMAL PROTEIN S19-LIKE PROTEIN): 1.34 | fold change vs vehicle control (protein LMJF.30.0850 SURFACE PROTEIN AMASTIN, PUTATIVE): 1.12 | fold change (protein LMJF.30.1250 PYRIDOXAL KINASE, PUTATIVE): 0.82 | fold change (protein LMJF.30.1940 SUCCINYL-COA:3-KETOACID-COENZYME A TRANSFERASE- LIKE PROTEIN): 1.02 | fold change vs vehicle control (protein LMJF.30.3190 3-HYDROXY-3-METHYLGLUTARYL-COA REDUCTASE): 0.77 | fold change vs vehicle control (protein LMJF.30.3520 S-ADENOSYL[…]): 1.03 | fold change vs vehicle control (protein LMJF.31.0440 CYTOSKELETON-[…] CAP5 5, PUTATIVE): 0.97 | fold change (protein LMJF.31.1130 N-ACYL-L-AMINO ACID AMIDOHYDROLASE, PUTATIVE): 0.9 | fold change vs vehicle control (protein LMJF.31.1640 THIOLASE PROTEIN-LIKE PROTEIN): 1.31 | fold change (protein LMJF.31.1800 AMINO ACID PERMEASE): 0.96 | fold change (protein LMJF.31.2250 3,2-TRANS-ENOYL-COA ISOMERASE, MIT[…], PUTATIVE): 1 | fold change vs vehicle control (protein LMJF.31.2790 ADP-RI[…], PUTATIVE): 1.03 | fold change (protein LMJF.31.3130 […]-COA CARBOXYLASE BIOTINYLATED […]-LIKE PROTEIN): 0.99 | fold change (protein LMJF.32.0010 HY[…], CONSERVED): 0.78 | fold change vs vehicle control (protein LMJF.32.0400 ATP-DEPENDENT RNA HELICASE, PUTATIVE): 1.02 | fold change vs vehicle control (protein LMJF.32.0520 PROFILIN, PUTATIVE): 1.17 | fold change (protein LMJF.32.1000 […]-COMPLEX PROTEIN, PUTATIVE): 0.92 | fold change vs vehicle control (protein LMJF.32.3010 HY[…], CONSERVED,LEUCINE-RICH REPEAT PROTEIN, PUTATIVE): 1.47 | fold change vs vehicle control (protein LMJF.32.3870 MYOSIN XXI): 0.97 | fold change vs vehicle control (protein LMJF.33.0890, HY[…], CONSERVED): 1.03 | fold change vs vehicle control (protein LMJF.33.1070 HY[…], UNKNOWN FUNCTION): 1.02 | fold change (protein LMJF.33.1330 CYSTEINE CONJUGATE BETA-LYASE, AMINOTRANSFERASE- LIKE PROTEIN): 1.06 | fold change (protein LMJF.33.1610 PEPTIDASE M20/M25/M40, PUTATIVE): 0.91 | fold change relative to vehicle control (protein LMJF.33.1630 CYCLOPHILIN 4, PUTATIVE): 0.93 | fold change vs vehicle control (protein LMJF.33.2300 UDP-GLC 4'-EPIMERASE, PUTATIVE): 0.98 | fold change vs vehicle control (protein LMJF.33.2390 HEAT SHOCK PROTEIN, PUTATIVE): 0.99 | fold change (protein LMJF.33.2410 HY[…], CONSERVED): 1.06 | fold change (protein LMJF.33.3150 40S RIBOSOMAL PROTEIN S13, PUTATIVE): 1.18 | fold change (protein LMJF.34.3500 RUVB-LIKE 1 DNA HELICASE, PUTATIVE): 1.19 | fold change (protein LMJF.34.3670 VACUOLAR ATP SYNTHASE CATALYTIC SUBUNIT A, PUTATIVE): 0.9 | fold change (protein LMJF.34.3740 SERINE PALMITOYLTRANSFERASE-LIKE PROTEIN): 0.95 | fold change (protein LMJF.34.4120 HY[…], CONSERVED): 0.82 | fold change vs vehicle control (protein LMJF.34.4370 20S […] 7 SUBUNIT, (PUTATIVE)): 1.2 | fold change (protein LMJF.35.0370 ATP-DEPENDENT DEAD-BOX RNA HELICASE, PUTATIVE): 1.01 | fold change vs vehicle control (protein LMJF.35.1380, MIT[…], BETA SUBUNIT, PUTATIVE): 1.16 | fold change vs vehicle control (protein LMJF.35.1410 THREONYL-TRNA SYNTHETASE, PUTATIVE): 1.01 | fold change vs vehicle control (protein LMJF.35.1720 CYCLOPHILIN 14, PUTATIVE): 1.09 | fold change (protein LMJF.35.2500 HY[…], CONSERVED): 1.26 | fold change (protein LMJF.35.2730 ACYL-COA DEHYDROGENASE, PUTATIVE): 1.14 | fold change relative to vehicle control (protein LMJF.35.3010 […],TRYPANOTHIONE-DEPENDENT […]): 0.92 | fold change vs vehicle control (protein LMJF.35.3100 ATP-DEPENDENT RNA HELICASE, PUTATIVE): 1.01 | fold change vs vehicle control (protein LMJF.35.3340 6-phosphogluconate dehydrogenase): 1.11 | fold change (protein LMJF.35.3700 GIM5A PROTEIN, PUTATIVE,[…] PROTEIN): 0.85 | fold change vs vehicle control (protein LMJF.35.3840, […] 2 SUBUNIT, PUTATIVE): 0.92 | fold change vs vehicle control (protein LMJF.35.3860 T-COMPLEX PROTEIN 1, ETA SUBUNIT, PUTATIVE): 1 | fold change (protein LMJF.35.4550 HY[…], CONSERVED): 1.56 | fold change (protein LMJF.35.4770 CYCLOPHILIN 40): 0.89 | fold change (protein LMJF.35.4850 […] 1 SUBUNIT, PUTATIVE): 0.85 | fold change (protein LMJF.35.4860 HY[…], CONSERVED): 0.98 | fold change relative to vehicle control (protein LMJF.35.5330 ISOPENTENYL-D[…]-ISOMERASE, PUTATIVE,ISOMERASE, PUTATIVE): 1.32 | fold change vs vehicle control (protein LMJF.36.0180 […] 2): 1.05 | fold change vs vehicle control (protein LMJF.36.0620 HY[…], CONSERVED): 1.06 | fold change vs vehicle control (protein LMJF.36.0990 40S RIBOSOMAL PROTEIN S10, PUTATIVE): 1.12 | fold change vs vehicle control (protein LMJF.36.2020 CHAPERONIN HSP60, MIT[…]): 0.88 | fold change vs vehicle control (protein LMJF.36.3460 HY[…], CONSERVED): 1.04 | fold change (protein LMJF.36.3760 60S RIBOSOMAL PROTEIN L10A, PUTATIVE): 1.19 | fold change vs vehicle control (protein LMJF.36.3840 GLYCYL TRNA SYNTHETASE, PUTATIVE): 0.95 | fold change vs vehicle control (protein LMJF.36.4170 OXIDOREDUCTASE, PUTATIVE): 0.93 | fold change vs vehicle control (protein LMJF.36.5010 40S RIBOSOMAL PROTEIN SA, PUTATIVE): 1.04 | fold change vs vehicle control (protein LMJF.36.5620 ISOLEUCYL-TRNA SYNTHETASE, PUTATIVE): 0.99 | fold change vs vehicle control (protein LMJF.36.6430 PROTEIN TRANSPORT PROTEIN SEC23-LIKE PROTEIN): 1.04 | fold change (protein LMJF.36.6760 HY[…], CONSERVED): 0.97 | fold change vs vehicle control (protein LMJF.36.6910 T-COMPLEX PROTEIN 1, THETA SUBUNIT, PUTATIVE): 1 | fold change vs vehicle control (protein LMJF.36.6940 disulfide isomerase PDI): 1.23 | fold change vs vehicle control (protein LMJF.[…] […] EXOPOLYPHOSPHATASE, PUTATIVE): 0.81
